This experiment addresses T1, human CXCR3 (N-delta 4) (Homo sapiens, UniProt P49682).
T1 construct: CD8 leader (N); Flag tag; expressed in transfected cells; membrane preparation
T1 sequence (P49682 5-368 limits assumed): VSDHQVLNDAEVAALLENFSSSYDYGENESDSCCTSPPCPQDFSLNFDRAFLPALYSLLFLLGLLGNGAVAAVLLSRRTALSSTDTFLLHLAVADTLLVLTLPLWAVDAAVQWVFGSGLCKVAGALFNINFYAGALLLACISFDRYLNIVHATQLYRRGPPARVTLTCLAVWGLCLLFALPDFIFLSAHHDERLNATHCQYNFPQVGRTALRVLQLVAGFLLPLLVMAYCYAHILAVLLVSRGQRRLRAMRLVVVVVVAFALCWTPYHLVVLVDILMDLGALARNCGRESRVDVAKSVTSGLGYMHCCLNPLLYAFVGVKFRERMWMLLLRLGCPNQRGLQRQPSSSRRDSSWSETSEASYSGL
The experiment in a line: Human CXCR3 (N-delta 4) scintillation proximity assay (SPA), [125I] IP-10 binding to Ba/F3-hCXCR3 membranes. The settings on record: IC50 rating; [125I] IP-10 displacement, human CXCR3; read-out: IC50. The source says: The inventive compounds can readily be evaluated to determine activity at the CXCR3 receptors by known methods, such as, for example, development of a human CXCR3 (N-delta 4) Binding Assay.
The DNA encoding human CXCR3 was cloned by PCR using human genomic DNA (Promega, Madison, Wis.) as a template. The PCR primers were designed based on the published sequence of human orphan receptor GPR9 (1) with incorporated restriction sites, a Kozak consensus sequence, CD8 leader and Flag tag. The PCR product was subcloned into the mammalian expression vector pME18Sneo, a derivative of the SR-alpha expression vector (designated as pME18Sneo-hCXCR3 (N-delta 4).
IL-3-dependent mouse pro-B cells Ba/F3 were transfected by electroporation in 0.4 ml Dulbecco's PBS containing 4×10^6 cells with 20 μg of pME18Sneo-hCXCR3 (N-delta 4) plasmid DNA. Cells were pulsed at 400 Volts, 100 OHMs, 960 μFd. The transfected cells were under selection with 1 mg/ml G418 (Life Technologies, Gaithersburg, Md.). G418-resistant Ba/F3 clones were screened for CXCR3 expression by specific binding of [^125I] IP-10 (NEN Life Science Products, Boston, Mass.).
Ba/F3 cells expressing human CXCR3 (N-delta 4) were pelleted and resuspended in the lysis buffer containing 10 mM HEPES, pH 7.5 and Complete® protease inhibitors (1 tablet per 100 ml) (Boehringer Mannheim, Indianapolis, Ind.) at a cell density of 20×10^6 cells per ml. After 5 minute incubation on ice, cells were transferred to 4639 cell disruption bomb (Parr Instrument, Moline, Ill.) and applied with 1,500 psi of nitrogen for 30 minutes on ice. Large cellular debris was removed by centrifugation at 1,000×g. Cell membrane in the supernatant was sedimented at 100,000×g. The membrane was resuspended in the lysis buffer supplemented with 10% sucrose and stored at −80° C. Total protein concentration of the membrane was determined by BCA method from Pierce (Rockford, Ill.).
Human CXCR3 (N-Delta 4) Scintillation Proximity Assay (SPA):
For each assay point, 2 μg of membrane was preincubated for 1 hr with 300 μg wheat germ agglutinin (WGA) coated SPA beads (Amersham, Arlington Heights, Ill.) in the binding buffer (50 mM HEPES, 1 mM CaCl2, 5 mM MgCl2, 125 mM NaCl, 0.002% NaN3, 1.0% BSA) at room temperature. The beads were spun down, washed once, resuspended in the binding buffer and transferred to a 96-well Isoplate (Wallac, Gaithersburg, Md.). 25 pM of [^125I] IP-10 with tested compounds in a series of titration were added to start the reaction. After 3 hr reaction at room temperature, the amount of [^125I] IP-10 bound to the SPA beads was determined with a Wallac 1450 Microbeta counter.
Background: SPA uses beads or plates that emit light when radiolabelled molecules are held near them.
A word on the IC50: it is the midpoint of a concentration-inhibition curve. Consider `CC[C@H]1CN(c2ncc(NC(=O)NC3CC3)cc2Cl)CCN1C1CCN(Cc2ccc(Cl)cc2F)CC1` [Compound 185], for which the IC50 is below 25 nM.
In the case of `CC[C@H]1CN(c2ncc(NS(C)(=O)=O)cc2Cl)CCN1C1CCN(Cc2ccc(F)c(F)c2)CC1` [Compound 21], the IC50 was below 25 nM.
`CC[C@H]1CN(c2ncc(NS(C)(=O)=O)cc2Cl)CCN1C1CCN(Cc2ccc(Cl)cc2-c2nnn[nH]2)CC1` [Compound 36]: the IC50 fell in the range of 25 to 100 nM.
In the case of `CC[C@H]1CN(c2ncc(NC3=NS(=O)(=O)N=C3N(C)C)cc2Cl)CCN1C1CCN(Cc2ccc(F)c(F)c2)CC1` [Compound 272], the IC50 was above 100 nM.
Then `CCC(C)(C)C1CCC(N2CCC(N3C[C@H](C)N(c4ncc(Nc5c(NCC(F)(F)F)c(=O)c5=O)cc4Cl)C[C@H]3C)CC2)C1` (stereo partly drawn) [Compound 171], with above 100 nM; and `CC[C@H]1CN(c2ncc(Nc3c(NCC(F)(F)F)c(=O)c3=O)cc2Cl)CCN1C1CCN(Cc2ccc(Cl)cc2F)CC1` [Compound 75], with below 25 nM; and `C[C@@H]1CN(c2ncc(Nc3c(NCC(F)(F)F)c(=O)c3=O)cc2Cl)[C@@H](C)CN1C1CCN(C2CCC(c3ccccc3)CC2)CC1` (stereo partly drawn) [Compound 173], with above 100 nM.
In the case of `CCNC(=O)Nc1ccc(N2CCN(C3CCN(Cc4ccc(Cl)cc4)CC3)[C@@H](CC)C2)c(Cl)c1` [Compound 192], the IC50 is above 100 nM.
For `CC[C@H]1CN(c2ncc(Nc3c(C(C)C)c(=O)c3=O)cc2Cl)CCN1C1CCN(Cc2ccc(C#N)cc2)CC1` [Compound 88], the IC50 was below 25 nM.
Turning to `C[C@H]1CN(c2ncc(NC(=O)c3ccc(Cl)cc3)cc2Cl)CCN1C1CCN(Cc2ccc(Cl)cc2)CC1` [Compound 200], the IC50 was above 100 nM.
`CC[C@H]1CN(c2ncc(Nc3c(NC4CC4)c(=O)c3=O)cc2Cl)CCN1C1CCN(Cc2ccc(Br)cc2F)CC1` [Compound 79]: the IC50 is below 25 nM.
To `CC[C@H]1CN(c2ncc(Nc3c(C(C)C)c(=O)c3=O)cc2Cl)CCN1C1CCN(Cc2ccc(OC(F)(F)F)cc2)CC1` [Compound 86] belongs below 25 nM; to `C[C@@H]1CN(c2ncc(Nc3c(NCC(F)(F)F)c(=O)c3=O)cc2Cl)[C@@H](C)CN1C1CCN(Cc2cccc3c2OCO3)CC1` [Compound 119], above 100 nM.
In the case of `CC[C@H]1CN(c2ncc(NS(C)(=O)=O)cc2Cl)CCN1C1CCN(Cc2ccc(Cl)cc2[N+](=O)[O-])CC1` [Compound 28], the IC50 lay in the range of 25 to 100 nM.
`CC[C@H]1CN(c2ncc(Nc3c(NC4CC4)c(=O)c3=O)cc2Cl)CCN1C1CCN(Cc2ccc(OC(F)(F)F)cc2)CC1` [Compound 77]: the concentration for half-maximal inhibition (IC50) was below 25 nM.
`CC[C@H]1CN(c2ncc(NC3=NS(=O)(=O)N=C3NC)cc2Cl)CCN1C1CCN(Cc2ccc(Cl)cc2C(=N)NO)CC1` [Compound 244]: the IC50 is below 25 nM.
With `CC[C@H]1CN(c2ncc(NS(C)(=O)=O)cc2Cl)CCN1C1CCN(Cc2ccc(O)cc2)CC1` [Compound 67], the 50% inhibitory concentration (IC50) was above 100 nM.
Take `CC[C@H]1CN(c2ncc(N/C(=N/C#N)NC)cc2Cl)CCN1C1CCN(Cc2ccc(Cl)cc2F)CC1` [Compound 205]: the IC50 lay in the range of 25 to 100 nM.
With `CC[C@H]1CN(c2ncc(NS(C)(=O)=O)cc2Cl)CCN1C1CCN(C(=O)c2ccc(Cl)nc2N)CC1` [Compound 31], the concentration for half-maximal inhibition (IC50) lay in the range of 25 to 100 nM.
To `CC[C@H]1CN(c2ncc(Nc3c(N4CCOCC4)c(=O)c3=O)cc2Cl)CCN1C1CCN(Cc2ccc(Cl)cc2F)CC1` [Compound 96] belongs below 25 nM; to `Cc1cc(Nc2c(NCC(F)(F)F)c(=O)c2=O)cnc1N1C[C@@H](C)N(C2CCN(C(=O)c3c(C)noc3C)CC2)C[C@@H]1C` [Compound 165], above 100 nM.
Then `CC[C@H]1CN(c2ncc(NS(N)(=O)=O)cc2Cl)CCN1C1CCN(C(CO)c2ccc(Cl)cc2)CC1` (stereo partly drawn) [Compound 3], with below 25 nM; and `CC[C@H]1CN(c2ncc(NS(C)(=O)=O)cc2Cl)CCN1C1CCN(Cc2ccc(C)cc2C)CC1` [Compound 20], with below 25 nM.
With `CC[C@H]1CN(c2ncc(NS(C)(=O)=O)cc2Cl)CCN1C1CCN([C@@H](C(N)=O)c2ccc(Cl)cc2)CC1` [Compound 59], the half-maximal inhibitory concentration (IC50) was above 100 nM.

Values taken from patent US7566718B2, “Amine-linked pyridyl and phenyl substituted piperazine-piperidines with CXCR3 antagonist activity” (Schering Corporation, priority 2005, dated 2009).
